# Laboratory results taken from patent US12275729B2 (Merck Sharp & Dohme LLC, priority 2017, dated 2025).
# Tests used:
# [1] = biological target: T1, IDO1 (Homo sapiens, UniProt P14902); test: IDO1 Human Whole Blood Assay; assay type: cell-based; design: Human whole blood was drawn in sodium heparin coated tubes from healthy internal donors; from tissue; host or cells: human whole blood from healthy donors, stimulated with LPS and IFNγ; details: LPS and IFNγ stimulated
# Procedure: IDO1 Human Whole Blood Assay
# Compounds to be tested were serially diluted in ten 3-fold steps in DMSO starting from 10 mM. […] LPS and IFNγ was prepared in RPMI to a 10× of final conc. (1000 ng/mL), final concentration is 100 ng/mL.
# Human whole blood was drawn in sodium heparin coated tubes from healthy internal donors. 240 μL of blood was transferred to each of the wells of a v-bottom 96 well plate. 30 μL of compound was transferred from intermediate dilution plate, and incubated for 15 min. 30 μL from stimulants was then transferred to blood and mixed thoroughly.
# On day 2 isotope labeled standard of kynurenine and tryptophan was made in water at 1Ox concentration and 30 μL was added to the blood at […] final concentration. The assay plates were centrifuged at 300×G for 10 min with no brake to separate plasma from red blood cells. 60 μL of plasma samples was removed without disturbing red blood cells. Plasma was diluted with RPMI in 1:1 ratio and proteins were precipitated out with two volume of Acetonitrile. The plates were centrifuged at 4000×G for 60 min. 20 μL of supernatant was carefully transferred to a 384 well plate contain 40 μL of 0.1% formic acid in water and analyzed by LC/MS/MS.
# LC/MS/MS analyses were performed using Thermo Fisher's LX4-TSQ Quantum Ultra system. This system consists of four Agilent binary high-performance liquid chromatography (HPLC) pumps and a TSQ Quantum Ultra triple quadrupole MS/MS instrument. For each sample, 5 μL were injected onto an Atlantis T3 column (2.1 mm×150 mm, […] particle size) from Waters. The mobile phase gradient pumped at 0.8 mL/min was used to elute the analytes from the column at 25° C. […] Mobile phase A consisted of 0.1% formic acid in water. Mobile phase B consisted of 0.1% of formic acid in acetonitrile. Data was acquired in positive mode using a HESI interface. The operational parameters for the TSQ Quantum Ultra instrument were a spray voltage of 4000 V, capillary temperature of 380° C., vaporizer temperature 400° C., shealth gas 60 arbitrary units, Aux gas 20 arbitrary units, tube lens 85 and collision gas 1.2 mTorr. […] The peak area was integrated by Xcalibur Quan software. The ratios between the kynurenine generated in the reaction and 2D6-Kynurenine spiked-in internal standard were used to generate percentage inhibition and IC50 values.
# [2] = biological target: T1, IDO1; test: IDO1 Cellular Assay in HeLa Cells Stimulated with IFNγ; assay type: cell-based; details: read-out: Hela IC50
# T1 sequence (P14902 whole entry): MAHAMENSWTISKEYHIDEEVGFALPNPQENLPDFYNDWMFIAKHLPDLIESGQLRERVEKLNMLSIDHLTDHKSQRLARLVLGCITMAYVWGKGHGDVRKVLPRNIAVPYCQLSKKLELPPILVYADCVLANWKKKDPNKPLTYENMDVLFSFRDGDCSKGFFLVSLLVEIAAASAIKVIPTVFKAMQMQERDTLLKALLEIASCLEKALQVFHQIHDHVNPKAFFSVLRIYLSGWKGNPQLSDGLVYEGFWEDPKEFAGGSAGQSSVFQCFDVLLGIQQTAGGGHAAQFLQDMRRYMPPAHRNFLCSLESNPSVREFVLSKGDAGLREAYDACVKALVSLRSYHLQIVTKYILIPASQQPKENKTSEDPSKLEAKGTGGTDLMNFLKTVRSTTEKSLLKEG
smiles,measurement,setting,value
"Cc1nccc(N2CCCc3nc(C4(C(=O)Nc5ccc(F)cc5)COC4)ccc32)n1 [Example 395, N-(4-fluorophenyl)-3-(5-(2-methylpyrimidin-4-yl)-5,6,7,8-tetrahydro-1,5-naphthyridin-2-yl)oxetane-3-carboxamide]",IC50,[1],26 nM
same,IC50,[2]; about 48 hours,1.23 nM
"Cc1nccc(N2CCCc3nc(C4(NC(=O)c5ccc(Cl)cc5)CC4)ccc32)n1 [Example 249, 4-chloro-N-(1-(5-(2-methylpyrimidin-4-yl)-5,6,7,8-tetrahydro-1,5-naphthyridin-2-yl)cyclopropyl)benzamide]",IC50,[1],63 nM
same,IC50,[2]; about 48 hours,0.7 nM
"O=C(C1COC1)N1CCCc2cc(C3(C(=O)Nc4ccc(F)cc4)CCC3)ccc21 [Example 115, N-(4-fluorophenyl)-1-[1-(oxetane-3-carbonyl)-1,2,3,4-tetrahydroquinolin-6-yl]cyclobutane-1-carboxamide]",IC50,[1],480 nM
same,IC50,[2]; about 48 hours,20 nM
"Cc1nccc(N2CCCc3nc(C(C)(C)C(=O)Nc4ccc(Cl)c(F)c4)ccc32)n1 [Example 391, N-(4-chloro-3-fluorophenyl)-2-methyl-2-(5-(2-methylpyrimidin-4-yl)-5,6,7,8-tetrahydro-1,5-naphthyridin-2-yl)propanamide]",IC50,[1],101 nM
same,IC50,[2]; about 48 hours,5.7 nM
"CCc1ccnc(C(=O)N2CCCc3nc(C(C)NC(=O)c4ccc(Cl)cc4)ccc32)c1 (centres unmarked) [Example 286, 4-chloro-N-(1-(5-(4-ethylpicolinoyl)-5,6,7,8-tetrahydro-1,5-naphthyridin-2-yl)ethyl)benzamide]",IC50,[1],89 nM
same,IC50,[2]; about 48 hours,1.2 nM
"CC(NC(=O)c1ccc(F)cc1)c1ccc2c(n1)CCCN2C(=O)OCCCc1ccncc1 (centres unmarked) [Example 322, 3-(pyridin-4-yl)propyl 6-(1-(4-fluorobenzamido)ethyl)-3,4-dihydro-1,5-naphthyridine-1(2H)-carboxylate]",IC50,[1],58 nM
same,IC50,[2],453 nM
"C[C@H](C(=O)Nc1ccc(F)cc1)c1ccc2c(c1)CCCN2C(=O)[C@H]1CCCCO1 (single isomer, unassigned) [Example 87]",IC50,[1],22 nM
same,IC50,[2]; about 48 hours,2.1 nM
"O=C(c1cccc(Cl)c1)N1CCc2nc(C3(C(=O)Nc4ccc(F)cc4)CCC3)ccc21 [Example 275, 1-[1-(3-chlorobenzene-1-carbonyl)-2,3-dihydro-1H-pyrrolo[3,2-b]pyridin-5-yl]-N-(4-fluorophenyl)cyclobutane-1-carboxamide]",IC50,[1],93 nM
same,IC50,[2]; about 48 hours,3 nM
"Cc1cc(C)n(COC(=O)N2CCCc3nc(C(C)NC(=O)c4ccc(F)cc4)ccc32)n1 (centres unmarked) [Example 320, (3,5-dimethyl-1H-pyrazol-1-yl)methyl 6-(1-(4-fluorobenzamido)ethyl)-3,4-dihydro-1,5-naphthyridine-1(2H)-carboxylate]",IC50,[1],1690 nM
same,IC50,[2],69.2 nM
"C[C@@H](C(=O)Nc1ccc(F)cn1)c1ccc2c(c1)CCCN2C(=O)c1cccc(Cl)c1 (single isomer, unassigned) [Example 55]",IC50,[1],19 nM
same,IC50,[2]; about 48 hours,2.4 nM
"O=C(OC1CC1)N1CCc2cc(C3(C(=O)Nc4ccc(F)cc4)CCC3)ccc21 [Example 270, cyclopropyl 5-{1-[(4-fluorophenyl)carbamoyl]cyclobutyl}-2,3-dihydro-1H-indole-1-carboxylate]",IC50,[1],41 nM
same,IC50,[2]; about 48 hours,1.2 nM
"Cc1nccc(N2CCCc3nc(C(C)C(=O)Nc4ccc(Cl)cc4)ccc32)n1 (centres unmarked) [Example 363, N-(4-chlorophenyl)-2-(5-(2-methylpyrimidin-4-yl)-5,6,7,8-tetrahydro-1,5-naphthyridin-2-yl)propanamide]",IC50,[1],178 nM
same,IC50,[2],0.93 nM
"Cc1nccc(N2CCCc3nc(C4(NC(=O)c5ccc(Cl)nc5)CC4)ccc32)n1 [Example 300, 6-chloro-N-(1-(5-(2-methylpyrimidin-4-yl)-5,6,7,8-tetrahydro-1,5-naphthyridin-2-yl)cyclopropyl)nicotinamide]",IC50,[1],63 nM
same,IC50,[2]; about 48 hours,1.9 nM
"O=C(OC1CC1)N1CCCc2nc(C3(C(=O)Nc4ccc(F)cc4)CC4(CC4)C3)ccc21 [Example 417, cyclopropyl 6-(5-((4-fluorophenyl)carbamoyl)spiro[2.3]hexan-5-yl)-3,4-dihydro-1,5-naphthyridine-1(2H)-carboxylate]",IC50,[1],12 nM
same,IC50,[2],0.73 nM
"O=C(OC1CC1)N1CCCc2nc(C3(C(=O)Nc4ccc(Cl)nc4)CC4(CC4)C3)ccc21 [Example 418, 2-(5-((6-chloropyridin-3-yl)carbamoyl)spiro[2.3]hexan-5-yl)-5-(cyclopropoxycarbonyl)-5,6,7,8-tetrahydro-1,5-naphthyridin-1-ium 2,2,2-trifluoroacetate]",IC50,[1],239 nM
same,IC50,[2],1.35 nM
"C[C@@H](C(=O)Nc1ccc(F)cc1)c1ccc2c(c1)CCCN2C(=O)c1cccc(Cl)c1 (single isomer, unassigned) [Example 53]",IC50,[1],45 nM
same,IC50,[2]; about 48 hours,2.2 nM
"CC(NC(=O)c1ccc(F)cc1)c1ccc2c(n1)C(O)CCN2C(=O)C1CC1 (single isomer, unassigned) [Example 197, N-(1-(5-(cyclopropanecarbonyl)-8-hydroxy-5,6,7,8-tetrahydro-1,5-naphthyridin-2-yl)ethyl)-4-fluorobenzamide]",IC50,[2]; about 48 hours,290 nM
"CC(C)CC(=O)N1CCCc2cc(CNC(=O)c3ccc(F)c(F)c3)ccc21 [Example 10, 3,4-difluoro-N-{[1-(3-methylbutanoyl)-1,2,3,4-tetrahydroquinolin-6-yl]methyl}benzamide]",IC50,[2]; about 48 hours,161 nM
"CC(C(=O)Nc1ccc(F)cc1)c1ccc2c(c1)CCCN2C(=O)C1CC1 (centres unmarked) [Example 36, 2-[1-(cyclopropanecarbonyl)-1,2,3,4-tetrahydroquinolin-6-yl]-N-(4-fluorophenyl)propanamide]",IC50,[2]; about 48 hours,5.8 nM
"O=C(OC1CC1)N1CCCc2nc(C3(C(=O)Nc4ccc(Cl)cc4)CCC3)ccc21 [Example 411, cyclopropyl 6-(1-((4-chlorophenyl)carbamoyl)cyclobutyl)-3,4-dihydro-1,5-naphthyridine-1(2H)-carboxylate]",IC50,[2],0.73 nM
"CC(NC(=O)c1ccc(F)cc1)c1ccc2c(n1)CCCN2CC1CC1 (centres unmarked) [Example 227, N-{1-[5-(cyclopropylmethyl)-5,6,7,8-tetrahydro-1,5-naphthyridin-2-yl]ethyl}-4-fluorobenzamide]",IC50,[2]; about 48 hours,70.5 nM
"Cc1ccnc(C(=O)N2CCCc3nc(C4(C(=O)Nc5ccc(F)cc5)COC4)ccc32)n1 [Example 400, N-(4-fluorophenyl)-3-(5-(4-methylpyrimidine-2-carbonyl)-5,6,7,8-tetrahydro-1,5-naphthyridin-2-yl)oxetane-3-carboxamide]",IC50,[2]; about 48 hours,1.91 nM
"CCn1ccc(C(=O)N2CCCc3nc(C(C)NC(=O)c4ccc(F)cc4)ccc32)n1 (stereo in doubt) [Example 143, N-{(1R)-1-[5-(1-ethyl-1H-pyrazole-3-carbonyl)-5,6,7,8-tetrahydro-1,5-naphthyridin-2-yl]ethyl}-4-fluorobenzamide]",IC50,[2]; about 48 hours,11.5 nM
"Cc1nc(C(=O)N2CCCc3cc(C(C)C(=O)Nc4ccc(F)cc4)ccc32)no1 (centres unmarked) [Example 47, N-(4-fluorophenyl)-2-[1-(5-methyl-1,2,4-oxadiazole-3-carbonyl)-1,2,3,4-tetrahydroquinolin-6-yl]propanamide]",IC50,[2]; about 48 hours,3.4 nM
"COC(=O)N1CCCc2nc(C3(NC(=O)c4ccc(F)cc4)CC3)ccc21 [Example 215, methyl 6-{1-[(4-fluorobenzene-1-carbonyl)amino]cyclopropyl}-3,4-dihydro-1,5-naphthyridine-1(2H)-carboxylate]",IC50,[2]; about 48 hours,57 nM
"O=C(Nc1ccc(F)cn1)C1(c2ccc3c(c2)CCCN3S(=O)(=O)C2CC2)CCC1 [Example 124, 1-[1-(cyclopropylsulfonyl)-1,2,3,4-tetrahydroquinolin-6-yl]-N-(5-fluoropyridin-2-yl)cyclobutane-1-carboxamide]",IC50,[2]; about 48 hours,26.2 nM
"N#Cc1cccc(C(=O)N2CCCc3cc(C4(C(=O)Nc5ccc(F)cn5)CCC4)ccc32)c1 [Example 108, 1-[1-(3-cyanobenzene-1-carbonyl)-1,2,3,4-tetrahydroquinolin-6-yl]-N-(5-fluoropyridin-2-yl)cyclobutane-1-carboxamide]",IC50,[2]; about 48 hours,4.9 nM
"O=C(Nc1ccc(F)cc1)C1(c2ccc3c(n2)CCCN3c2ccnc(C(F)(F)F)n2)CC2(CC2)C1 [Example 416, N-(4-fluorophenyl)-5-(5-(2-(trifluoromethyl)pyrimidin-4-yl)-5,6,7,8-tetrahydro-1,5-naphthyridin-2-yl)spiro[2.3]hexane-5-carboxamide]",IC50,[2],0.79 nM
